# US5837729A, “Methods for treating and preventing HIV infection using acetaminophen and derivatives thereof” (priority 1996, dated 1998)
# “And” between values parts separate entries of the source, which are not always exact repeats. Identical values can stand only once. “Also recorded” adds a separate entry of the source. Like-named read-outs stand apart in the source and are kept apart here.
# What was measured:
# MT-4 T lymphocytes [1] = assay: in vitro
# Description: (§1) The % values on the right axis were positioned in a fashion that allows estimation of inhibitory effect of the test drug as a function of acetaminophen concentration plotted on the horizontal axis.
# (§2) The % values on the right axis were positioned in a fashion that allows estimation of inhibitory effect of the test drug as a function of AGB concentration plotted on the horizontal axis.
# (§3) The % values on the right axis were positioned in a fashion that allows estimation of the inhibitory effect of test drug as a function of EGB concentration plotted on the horizontal axis.
# (§4) The toxicity of compounds was tested as follows. MT-4 lymphocytes were grown in the presence or absence of log10 dilutions of test compounds for two days. The cells were then exposed for 4 hours to the preparation of XTT tetrasolium salt (Sigma, St Louis, Mo.) containing phenazine methosulfate (Aldrich, Milwaukee, Wis.). The viability of drug-exposed cells was determined based on activity of mitochondrial […] of MT-4 converting XTT into color-dense formazan. Optical density was then determined in a plate reader at […] with reference filter at […] and compared to absorbance values of the control cells cultured without drugs. XTT test was also confirmed by trypan blue exclusion test based on the principle that nuclei of dead cells are stained blue.
# (§5) The serial ten-fold dilutions of AGB, virus, and cells were left without washing in the culture until tested for HIV production 2 days later. Topical contraceptive agents nonoxynol-9 and gramicidin were used as controls.
# (§6) The serial ten-fold dilutions of EGB, virus, and cells were left without washing in the culture until tested for HIV production 2 days later. Topical contraceptive agents nonoxynol-9 and gramicidin were used as controls.
# acrosin = conditions: correlated with contraceptive effect; cited from earlier work
# human spermatozoa = conditions: in vitro with human spermatozoa and in animal studies; cited from earlier work
# [2] = cited from earlier work; for potency as experimental vaginal contraceptive, fold more potent than nonoxynol-9: versus nonoxynol-9
# HIV [3] = assay: HIV infection of MT-4 T lymphocytes, p24 ELISA of culture supernatant on day 2; type: cell-based; conditions: for IC100 / IC50: Human immunodeficiency virus 1, T-lymphocyte; for IC100: 48 h; for IC50 / anti-HIV activity (in words): MT-4, p24
# Method: as §2, §3
# Indicator MT-4 T lymphocytes (10^5 cells/ml) were plated in triplicates in 96-well culture plates in the presence of serial 10-fold molar dilutions of test compound. Each culture well contained 180 μl of RPMI 1640 culture medium with 10% FBS, L-glutamine, penicillin and streptomycin. Immediately thereafter MT-4 lymphocytes were exposed to 20 μl of viral inoculum corresponding to 100 infectious units per lymphocyte as determined by limiting dilution assay. Two days later--the minimal time period corresponding to full replication cycle of HIV--the culture supernatants were collected and dose-response to drugs was quantitated by measuring the levels of cell-free p24 antigen. The amount of released virus was calculated by comparing the optical density of experimental values from treated wells to commercial p24 standards (Coulter, Hialeah, Fla.).
# as §5, §6
# [4] = cited from earlier work
# in vitro = conditions: human, mt-4 cells
# Description: as §1, §2, §3, §4, §5, §6
# MT-4 T lymphocytes [5] = type: cell-based
# Method: The toxicity of compounds was tested as follows.
# HIV [6] = conditions: cited from earlier work
# [7] = Table 1, MT-4, 2 days, read-out: IC100 (approximate order of anti-HIV concentration)
# [8] = p24 ELISA, MT-4 supernatant, day 2, read-out: Complete inhibition of HIV replication, concentration
# [9] = background, earlier work of inventor
compound,measurement,setting,value
"CC(=O)Nc1ccc(OC(=O)c2ccc(NC(=N)N)cc2)cc1 [AGB, 4'-acetamidophenyl 4-guanidinobenzoate]",CC100 (cytotoxicity),"MT-4 T lymphocytes [1]; human, 2880 min",10000 µg
same,acrosin activity (in words),acrosin,inhibitory action on acrosin activity
same,optimal concentration required to inhibit both acrosome reaction and sperm motility,human spermatozoa,100 µg/mL
same,toxicity and irritation versus nonoxynol-9 (in words),[2],far less toxic and irritating
same,"potency as experimental vaginal contraceptive, fold more potent than nonoxynol-9",[2],up to 100 fold
same,"antiviral potency relative to nonoxynol-9, times less potent",HIV [3],10 times
same,IC100,HIV [3]; [7],100 µg/mL
same,IC100,HIV [3]; [8],100 µg/mL
same,IC50,"HIV [3]; read-out: anti-HIV activity in vitro, IC50",14 µg/mL
same,"SI, selectivity index, ratio between CC100 and IC100 values","HIV [3]; Table 1, CC100/IC100",100
"CC(=O)Nc1ccc(O)cc1 [Acetaminophen, acetaminophen]",anti-inflammatory activity (in words),"[4]; human, in vivo",no anti-inflammatory activity
same,toxicity / hepatotoxicity (in words),[4]; overdose or consumption with alcohol,can cause hepatotoxicity
same,toxicity at tested concentrations (in words),MT-4 T lymphocytes [1],has not shown any toxicity at all tested concentrations
same,toxic dose-effect by XTT formazan OD (in words),MT-4 T lymphocytes [1]; up to highest tested dose containing 0.5% of ethanol,no observable toxic dose-effect
same,selectivity ratio,in vitro,≤ 75
same,IC100,HIV [3]; [7],150 µg/mL
same,IC100,HIV [3]; [8],150 µg/mL and 1000 µM
same,IC50,"HIV [3]; read-out: inhibitory concentration (IC50), 50% inhibition of de novo HIV infection",21 µg/mL
same,anti-HIV activity (in words),HIV [3],antivirally active
"CCOC(=O)c1ccc(OC(=O)c2ccc(NC(=N)N)cc2)cc1 [EGB, 4'-carboethoxyphenyl 4-guanidinobenzoate]",CC100 (cytotoxicity),"MT-4 T lymphocytes [1]; human, 2880 min",100 µg
same,acrosin activity (in words),acrosin,inhibitory action on acrosin activity
same,toxicity and irritation versus nonoxynol-9 (in words),[2],far less toxic and irritating
same,"potency as experimental vaginal contraceptive, fold more potent than nonoxynol-9",[2],up to 100 fold
same,"SI, selectivity index, ratio between CC100 and IC100 values",HIV [3],1
same,IC100,HIV [3]; [7],100 µg/mL
same,anti-HIV activity (in words),HIV [3],antiviral activity was not specific and due to the death of host lymphocytes; also recorded: no effect on HIV infection at doses that were not toxic; also recorded: has not shown specific anti-HIV activity
same,viability of MT-4 lymphocytes by trypan blue exclusion (in words),MT-4 T lymphocytes [5],death of MT-4 lymphocytes
CC(C)C[C@H](NC(=O)[C@@H](O)[C@H](N)Cc1ccccc1)C(=O)O [bestatin],anti-HIV effect / inhibition of HIV replication (in words),HIV [6]; [9],anti-HIV effect
CN/C(=N/CCSCc1nc[nH]c1C)NC#N [cimetidine],anti-HIV effect / inhibition of HIV replication (in words),HIV [6],able to inhibit HIV replication without producing significant cytotoxicity
C[C@@H]1C[C@H]2[C@@H]3CCC4=CC(=O)C=C[C@]4(C)[C@@]3(F)[C@@H](O)C[C@]2(C)[C@@]1(O)C(=O)CO [dexamethasone],anti-HIV effect / inhibition of HIV replication (in words),HIV [6]; [9],anti-HIV effect
COc1ccc2c(c1)c(CC(=O)O)c(C)n2C(=O)c1ccc(Cl)cc1 [indomethacin],relative anti-HIV potency (in words),HIV [6]; indomethacin versus aspirin,more potent than aspirin
c1ccc([C@H]2CN3CCSC3=N2)cc1 [levamisole],anti-HIV effect / inhibition of HIV replication (in words),HIV [6],anti-HIV effect
CC(=O)[C@H]1CC[C@H]2[C@@H]3CCC4=CC(=O)CC[C@]4(C)[C@H]3CC[C@]12C [progesterone],anti-HIV effect / inhibition of HIV replication (in words),HIV [6]; [9],anti-HIV effect
CC(=O)CC(c1ccccc1)c1c(O)c2ccccc2oc1=O (stereo not drawn) [warfarin],anti-HIV effect / inhibition of HIV replication (in words),HIV [6]; [9],anti-HIV effect
estrogen,anti-HIV effect / inhibition of HIV replication (in words),HIV [6]; [9],anti-HIV effect
gramicidin,CC100 (cytotoxicity),"MT-4 T lymphocytes [1]; Table 1, MT-4, 2 days",10 µg
same,toxicity relative to AGB (in words),MT-4 T lymphocytes [1]; dose compared with AGB,toxic at doses that are a thousand-fold lower than AGB
same,anti-HIV effect / inhibition of HIV replication (in words),HIV [6]; [9],able to inhibit HIV replication without producing significant cytotoxicity
same,IC100 (approximate order of anti-HIV concentration),"HIV [3]; Table 1, MT-4, 2 days",10 ng
nonoxynol-9,local toxicity (in words),"[4]; spermicidal agent, effective concentration",local toxicity of this agent is incompatible with its antiviral activity when used at an effective concentration
same,CC100 (cytotoxicity),"MT-4 T lymphocytes [1]; Table 1, MT-4, 2 days",10 µg
same,IC100 (approximate order of anti-HIV concentration),"HIV [3]; Table 1, MT-4, 2 days",10000 ng
